Laboratory results reported in patent US11470846B2, “Herbicidal pyridino-/pyrimidino-thiazoles” (SYNGENTA PARTICIPATIONS AG, priority 2014, dated 2022).

What was measured:
Type in all cases: in vivo
[1] = tested on: Alopecurus myosuroides (ALOMY); assay: Pre-emergence herbicidal activity; details: pre-emergence application, 1000 g/Ha, evaluated after 13 days, scale 0-5
Outline: (§1)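 Seeds sown in standard soil, sprayed one day after sowing with active ingredient formulated in acetone/water (50:50) with 0.5% Tween 20. Glasshouse at 24/16 °C day/night, 14 h light, 65% humidity, watered twice daily; damage scored after 13 days on a 0–5 scale (5 = total damage).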

[2] = tested on: Avena fatua (AVEFA); assay: Pre-emergence herbicidal activity; details: pre-emergence application, 1000 g/Ha, evaluated after 13 days, scale 0-5
Outline: as §1

[3] = tested on: Echinochloa crus-galli (ECHCG); assay: Pre-emergence herbicidal activity; details: pre-emergence application, 1000 g/Ha, evaluated after 13 days, scale 0-5
Outline: as §1

[4] = tested on: Lolium perenne (LOLPE); assay: Pre-emergence herbicidal activity; details: pre-emergence application, 1000 g/Ha, evaluated after 13 days, scale 0-5
Outline: as §1

[5] = tested on: Oryza sativa (ORYSA); assay: Pre-emergence herbicidal activity; details: pre-emergence application, 1000 g/Ha, evaluated after 13 days, scale 0-5
Outline: as §1

[6] = tested on: Triticum aestivium (TRZAW); assay: Pre-emergence herbicidal activity; details: pre-emergence application, 1000 g/Ha, evaluated after 13 days, scale 0-5
Outline: as §1

[7] = tested on: Alopecurus myosuroides (ALOMY); assay: Post-emergence herbicidal activity; details: post-emergence application, 1000 g/Ha, evaluated after 13 days, scale 0-5
Outline: (§2)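 Post-emergence spray at 8 days after sowing; formulation acetone/water 50:50 + 0.5% Tween 20. Glasshouse 24/16 °C, 14 h light, 65% RH, watered twice daily. Visual score at 13 d, 0 (no damage) to 5 (total damage).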

[8] = tested on: Avena fatua (AVEFA); assay: Post-emergence herbicidal activity; details: post-emergence application, 1000 g/Ha, evaluated after 13 days, scale 0-5
Outline: as §2

[9] = tested on: Echinochloa crus-galli (ECHCG); assay: Post-emergence herbicidal activity; details: post-emergence application, 1000 g/Ha, evaluated after 13 days, scale 0-5
Outline: as §2

[10] = tested on: Lolium perenne (LOLPE); assay: Post-emergence herbicidal activity; details: post-emergence application, 1000 g/Ha, evaluated after 13 days, scale 0-5
Outline: as §2

[11] = tested on: Oryza sativa (ORYSA); assay: Post-emergence herbicidal activity; details: post-emergence application, 1000 g/Ha, evaluated after 13 days, scale 0-5
Outline: as §2

[12] = tested on: Triticum aestivium (TRZAW); assay: Post-emergence herbicidal activity; details: post-emergence application, 1000 g/Ha, evaluated after 13 days, scale 0-5
Outline: as §2

[13] = tested on: Abutilon theophrasti (ABUTH); assay: Pre-emergence herbicidal activity; details: pre-emergence application, 1000 g/Ha, evaluated after 13 days, scale 0-5
Outline: as §1

[14] = tested on: Amaranthus retroflexus (AMARE); assay: Pre-emergence herbicidal activity; details: pre-emergence application, 1000 g/Ha, evaluated after 13 days, scale 0-5
Outline: as §1

[15] = tested on: Setaria faberi (SETFA); assay: Pre-emergence herbicidal activity; details: pre-emergence application, 1000 g/Ha, evaluated after 13 days, scale 0-5
Outline: as §1

[16] = tested on: Zea Mays (ZEAMX); assay: Pre-emergence herbicidal activity; details: pre-emergence application, 1000 g/Ha, evaluated after 13 days, scale 0-5
Outline: as §1

[17] = tested on: Abutilon theophrasti (ABUTH); assay: Post-emergence herbicidal activity; details: post-emergence application, 1000 g/Ha, evaluated after 13 days, scale 0-5
Outline: as §2

[18] = tested on: Amaranthus retroflexus (AMARE); assay: Post-emergence herbicidal activity; details: post-emergence application, 1000 g/Ha, evaluated after 13 days, scale 0-5
Outline: as §2

[19] = tested on: Setaria faberi (SETFA); assay: Post-emergence herbicidal activity; details: post-emergence application, 1000 g/Ha, evaluated after 13 days, scale 0-5
Outline: as §2

[20] = tested on: Zea Mays (ZEAMX); assay: Post-emergence herbicidal activity; details: post-emergence application, 1000 g/Ha, evaluated after 13 days, scale 0-5
Outline: as §2

Compound | Control of weed species, ALOMY (damage score) [1] | Control of weed species, AVEFA (damage score) [2] | Control of weed species, ECHCG (damage score) ([3]; Table 5) | Control of weed species, LOLPE (damage score) ([4]; Table 5) | Control of weed species, ORYSA (damage score) [5] | Control of weed species, TRZAW (damage score) [6] | Control of weed species, ALOMY (damage score) [7] | Control of weed species, AVEFA (damage score) [8] | Control of weed species, ECHCG (damage score) ([9]; Table 7) | Control of weed species, LOLPE (damage score) ([10]; Table 7) | Control of weed species, ORYSA (damage score) [11] | Control of weed species, TRZAW (damage score) [12] | further results
CN(C(=O)OC(C)(C)C)c1sc(-c2cccnc2)nc1Cl [Compound A29] | 1 | 2 | 3 | 2 | 2 | 3 | 1 | 4 | 5 | 4 | 1 | 1 | –
CN(C(=O)OC(C)(C)C)c1sc(-c2cccnc2)nc1Br [Compound A30, tert-butyl N-[4-bromo-2-(3-pyridyl)thiazol-5-yl]-N-methyl-carbamate] | 1 | 3 | 4 | 2 | 1 | 0 | 1 | 4 | 5 | 4 | 1 | 2 | –
CN(C(=O)OC(C)(C)C)c1sc(-c2cccnc2)nc1I [Compound A31, tert-butyl N-[4-iodo-2-(3-pyridyl)thiazol-5-yl]-N-methyl-carbamate] | 1 | 1 | 3 | 2 | 1 | 1 | 1 | 5 | 4 | 3 | 1 | 1 | –
CN(C(=O)OC(C)(C)C)c1sc(-c2cccnc2)nc1F [Compound A32, tert-butyl N-[4-fluoro-2-(3-pyridyl)thiazol-5-yl]-N-methyl-carbamate] | 0 | 1 | 2 | 1 | 2 | 0 | 1 | 3 | 3 | 2 | 1 | 0 | –
Cc1nc(-c2cncc(F)c2)sc1N1CCOC1=O [Compound A38, 3-[2-(5-fluoro-3-pyridyl)-4-methyl-thiazol-5-yl]oxazolidin-2-one] | 1 | 1 | 5 | 2 | 3 | 0 | 1 | 4 | 5 | 3 | 0 | 1 | –
Cc1nc(-c2cccnc2)sc1N(C)C(=O)NOC(C)(C)C [Compound A45, 3-tert-butoxy-1-methyl-1-(4-methyl-2-(3-pyridyl)thiazol-5-yl)urea] | 2 | 3 | 3 | 2 | 2 | 1 | 1 | 5 | 4 | 4 | 2 | 2 | –
CN(C(=O)OC(C)(C)C)c1sc(-c2cncc(F)c2)nc1Br [Compound A51] | 0 | 2 | 1 | 3 | 0 | 0 | 0 | 4 | 4 | 2 | 0 | 0 | –
CN(C(=O)OC(C)(C)C)c1sc(-c2cncc(F)c2)nc1I [Compound A52] | 0 | 3 | 2 | 3 | 1 | 0 | 1 | 4 | 4 | 3 | 0 | 1 | –
Cc1nc(-c2cc(F)c[n+]([O-])c2)sc1N(C)C(=O)OC(C)(C)C [Compound A62, tert-butyl N-[2-(5-fluoro-3-pyridyl N-oxide)-4-methyl-thiazol-5-yl]-N-methyl-carbamate] | 2 | 2 | 3 | 2 | 1 | 1 | 1 | 4 | 4 | 4 | 0 | 1 | –
C#CCOC(=O)N(C)c1sc(-c2cccnc2)nc1C [Compound B1, prop-2-ynyl N-methyl-N-[4-methyl-2-(3-pyridyl)thiazol-5-yl]carbamate] | – | – | – | – | – | – | – | – | – | – | – | – | Control of weed species, ABUTH (damage score) [13]: 2; Control of weed species, AMARE (damage score) [14]: 2; Control of weed species, ECHCG (damage score) ([3]; Table 6): 2; Control of weed species, LOLPE (damage score) ([4]; Table 6): 3; Control of weed species, SETFA (damage score) [15]: 5; Control of weed species, ZEAMX (damage score) [16]: 5; Control of weed species, ABUTH (damage score) [17]: 1; Control of weed species, AMARE (damage score) [18]: 1; Control of weed species, ECHCG (damage score) ([9]; Table 8): 4; Control of weed species, LOLPE (damage score) ([10]; Table 8): 3; Control of weed species, SETFA (damage score) [19]: 5; Control of weed species, ZEAMX (damage score) [20]: 5
C#CC(C)OC(=O)N(C)c1sc(-c2cccnc2)nc1C (stereo not drawn) [Compound B2, 1-methylprop-2-ynyl N-methyl-N-[4-methyl-2-(3-pyridyl)thiazol-5-yl]carbamate] | – | – | – | – | – | – | – | – | – | – | – | – | Control of weed species, ABUTH (damage score) [13]: 3; Control of weed species, AMARE (damage score) [14]: 3; Control of weed species, ECHCG (damage score) ([3]; Table 6): 1; Control of weed species, LOLPE (damage score) ([4]; Table 6): 3; Control of weed species, SETFA (damage score) [15]: 5; Control of weed species, ZEAMX (damage score) [16]: 5; Control of weed species, ABUTH (damage score) [17]: 2; Control of weed species, AMARE (damage score) [18]: 2; Control of weed species, ECHCG (damage score) ([9]; Table 8): 2; Control of weed species, LOLPE (damage score) ([10]; Table 8): 4; Control of weed species, SETFA (damage score) [19]: 5; Control of weed species, ZEAMX (damage score) [20]: 4
C#CC(C)(C)OC(=O)N(C)c1sc(-c2cccnc2)nc1C [Compound B3, 1,1-dimethylprop-2-ynyl N-methyl-N-[4-methyl-2-(3-pyridyl)thiazol-5-yl]carbamate] | – | – | – | – | – | – | – | – | – | – | – | – | Control of weed species, ABUTH (damage score) [13]: 4; Control of weed species, AMARE (damage score) [14]: 3; Control of weed species, ECHCG (damage score) ([3]; Table 6): 3; Control of weed species, LOLPE (damage score) ([4]; Table 6): 3; Control of weed species, SETFA (damage score) [15]: 4; Control of weed species, ZEAMX (damage score) [16]: 5; Control of weed species, ABUTH (damage score) [17]: 1; Control of weed species, AMARE (damage score) [18]: 2; Control of weed species, ECHCG (damage score) ([9]; Table 8): 4; Control of weed species, LOLPE (damage score) ([10]; Table 8): 4; Control of weed species, SETFA (damage score) [19]: 5; Control of weed species, ZEAMX (damage score) [20]: 5
